Reference: US12378256B2, “Heterocyclic compound” (Takeda Pharmaceutical Company Limited, priority 2017, dated 2025)

Target: T1, human M1 receptor (hCHRM1) (Homo sapiens, UniProt P11229)
T1 construct: expressed in transfected cells; host or cells: CHO-K1
T1 sequence (P11229 1-460): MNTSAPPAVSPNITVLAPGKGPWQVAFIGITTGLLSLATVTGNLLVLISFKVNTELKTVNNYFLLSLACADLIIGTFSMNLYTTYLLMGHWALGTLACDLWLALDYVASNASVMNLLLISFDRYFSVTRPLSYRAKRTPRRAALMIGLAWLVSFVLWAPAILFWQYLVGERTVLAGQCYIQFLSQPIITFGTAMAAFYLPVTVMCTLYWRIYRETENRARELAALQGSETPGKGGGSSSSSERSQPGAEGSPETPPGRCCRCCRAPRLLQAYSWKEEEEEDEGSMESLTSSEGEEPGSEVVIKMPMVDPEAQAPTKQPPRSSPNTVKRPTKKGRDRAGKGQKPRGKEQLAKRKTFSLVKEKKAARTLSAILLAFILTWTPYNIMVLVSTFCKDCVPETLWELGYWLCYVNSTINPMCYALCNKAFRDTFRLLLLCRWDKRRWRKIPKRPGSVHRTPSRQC
Assay: Measurement of M1 receptor positive allosteric modulator (M1PAM) activity, calcium fluorescence with acetylcholine at EC20
Type: cell-based
Conditions: for activity (%) at 10 μM: 10 μM test compound, 100% = 1 μM acetylcholine, 0% = DMSO; for EC50: CHO-K1 cells expressing hCHRM1, acetylcholine at EC20 (final 0.8-1.0 nM), read-out: IP value (inflection point in the concentration-dependent curve)
Method: Measurement of M1 Receptor Positive Allosteric Modulator (M1PAM) Activity
The activity of a test compound in the presence of acetylcholine at EC20 concentration (final concentration 0.8-1.0 nM), which affords an action corresponding to about 20% of the maximum activity, was measured as PAM activity. The method is as follows. CHO-K1 cells stably expressing a human M1 receptor (hCHRM1) were plated on a 384-well black clear bottom plate (BD Falcon) at 5,000 cells/well, and cultured in an incubator at 37° C., 5% CO2 for 1 day. The medium in the cell plate was removed, and assay buffer A containing calcium indicator (Recording medium (DOJINDO LABORATORIES), 0.1% BSA (Wako Pure Chemical Industries, Ltd.), 2.5 μg/mL Fluo-4 AM (DOJINDO LABORATORIES), 0.08% Pluronic F127 (DOJINDO LABORATORIES), 1.25 mM probenecid (DOJINDO LABORATORIES)) was added at 30 μL/well. The cells were left standing in the incubator at 37° C., 5% CO2 for 30 min, and further left standing at room temperature for 30 min. A test compound prepared by diluting with assay buffer B (HBSS (Invitrogen), 20 mM HEPES (Invitrogen), 0.1% BSA) containing 3.2-4.0 nM acetylcholine was added at 10 μL/well, and the fluorescence was measured by FDSS/μCELL (Hamamatsu Photonics K.K.) for 1 min every for 1 second. With the definition that the amount of change in the fluorescence on addition of acetylcholine (final concentration 1 μM) is 100% and that on addition of DMSO instead of a test compound is 0%, the activity (%) of the test compound was calculated, and the inflection point in the concentration-dependent curve of the test compound was calculated as IP values.

| activity (%) at 10 μM | EC50 | SMILES |
| --- | --- | --- |
| 103% | 3.8 nM | CN(C)C(=O)CNC(=O)c1ccc(Cc2cc(C(=O)N[C@H]3CCOC[C@@H]3O)nc3c2OCC3)cc1F [Example 100, 1,5-anhydro-2,3-dideoxy-3-(((7-(4-((2-(dimethylamino)-2-oxoethyl)carbamoyl)-3-fluorobenzyl)-2,3-dihydrofuro[3,2-b]pyridin-5-yl)carbonyl)amino)-L-threo-pentitol] |
| 105% | 4.3 nM | O=C(N[C@H]1CCOC[C@@H]1O)c1cc(Cc2ccc(C(=O)NC[C@H]3CCCO3)c(F)c2)c2occc2n1 [Example 105, 1,5-anhydro-2,3-dideoxy-3-(((7-(3-fluoro-4-(((2R)-tetrahydrofuran-2-ylmethyl)carbamoyl)benzyl)-furo[3,2-b]pyridin-5-yl)carbonyl)amino)-L-threo-pentitol] |
| 107% | 8.8 nM | COCCNC(=O)c1ccc(C(C)c2cc(C(=O)N[C@H]3CCOC[C@@H]3O)nc3ccoc23)cc1F (stereo partly drawn) [Example 111, 1,5-anhydro-2,3-dideoxy-3-(((7-(1-(3-fluoro-4-((2-methoxyethyl)carbamoyl)phenyl)ethyl)furo[3,2-b]pyridin-5-yl)carbonyl)amino)-L-threo-pentitol] |
| 109% | 21 nM | CN1Cc2cc(Cc3cc(C(=O)N[C@H]4CCOC[C@@H]4O)nc4c3OCC4)ccc2C1=O [Example 113, 1,5-anhydro-2,3-dideoxy-3-(((7-((2-methyl-1-oxo-2,3-dihydro-1H-isoindol-5-yl)methyl)-2,3-dihydrofuro[3,2-b]pyridin-5-yl)carbonyl)amino)-L-threo-pentitol] |
